Among the data in US20190002555A1, “ANTIGEN-BINDING PROTEINS TO MARINOBUFAGENIN” (REGENERON PHARMACEUTICALS, INC., priority 2015, published 2019) are IC50 values, retold here.

This assay concerns the target T1, Na+/K+ ATPase (Homo sapiens, UniProt P05023).
T1 construct: An in-vitro cell-based assay was developed to assess the regulation of Na+/K+ ATPase by MBG using HEK293 cells; host or cells: HEK293/hnAChR α3/β4 cells
The assay is described as follows: Membrane potential assay: MBG inhibition of membrane repolarization. Format: cell-based. An excerpt:
An in-vitro cell-based assay was developed to assess the regulation of Na+/K+ ATPase by MBG using HEK293 cells. HEK293 has Na+/K+ ATPase activity and contains the α1 isoform (Kochskämper et al. 1997, Biochim. Biophys. Acta 1325: 197-208). […] HEK293 cells expressing human neuronal nicotinic acetylcholine receptors (nAChR) subunits α3 and β4 (Accession # M37981 and #NM_000750), HEK293/hnAChR α3/β4 (Millipore) were used. The nAchR heterodimer is a ligand-gated ion channel that mediates influx of Na+ upon ligand binding (Corringer et al. 2000, Annu. Rev. Pharmacol. Toxicol. 40: 431-458). […] MBG was added to inhibit the repolarization of the cell through its effects on Na^+/K^+ ATPase. Changes in the membrane potential of the cells were monitored using a fluorescent dye whose intensity increases when the cells are depolarized and decreases as the cells are repolarized.
For the bioassay, cells were detached with Enzyme Free Cell Dissociation Buffer (Millipore) seeded into 96-well assay plates at 50,000 cells/well in Opti-MEM™ assay buffer supplemented with 0.1% FBS, penicillin/streptomycin and L-glutamine (known from this point forward as Opti-MEM™), and then incubated at 37° C. in 5% CO2 overnight. […] The plate was then placed into the FLIPR^Tetra® (Molecular Devices) and kinetic readings were collected at 25° C. […]

Several values for one entry are separate records, joined by “and”; a condition that tells them apart may be missing. Equal values may be shown once. Read-outs that look alike come from different tables or passages of the source.

With `C[C@]12CC[C@H](O)C[C@@]1(O)CC[C@@H]1[C@@H]2CC[C@]2(C)[C@@H](c3ccc(=O)oc3)CC3O[C@@]312` (stereo partly drawn) [MBG, 3β, 5β-dihydroxy-14,15-epoxybufadienolide], the IC50 (commonly the concentration needed to halve the response being measured) (IC50 [M] of MBG (@ 100 nM Epibatidine)) was 6.6e-07 M and 4.5e-07 M; the IC50 (read-out: IC50 of MBG) was 7e-07 M and 4.46e-07 M and 6.62e-07 M.
